Assay results taken from patent US8426394B2, “Progesterone antagonists such as CDB-4124 in the treatment of endometriosis, uterine fibroids, dysmenorrhea, breast cancer, etc” (Repros Therapeutics Inc., priority 2008, dated 2013).

Assays:
Format in all cases: in vivo, human
[1] = tested on: pre-menopausal adult women diagnosed with endometriosis; assay: Six month study of Proellex (CDB-4124) in the treatment of endometriosis
Experimental: Pain reduction also occurred more rapidly than with the active control, Lucrin®. The response of pain to treatment in this study was analyzed in two ways. Patients in the study maintained daily pain diaries to record the severity and frequency of pain. In addition, at each office visit, patients filled out endometriosis symptom surveys that included a questionnaire that evaluated intensity of pain on a bad day on a scale of 0-10 with 10 being the greatest intensity. […] There appeared to be a dose dependent effect on pain reduction. […] This decrease in duration of pain was statistically better (p=0.0012) than the 117.8 (74%; standard deviation 51.4 days) pain free days achieved with Lucrin®. […] Patients on CDB-4124 12.5 mg and 25 mg doses had 115.9 (66%; standard deviation 69.2 days) and 133.6 (75%; standard deviation 27.4 days) pain free days, respectively. […] The 25 mg and 12.5 mg doses of CDB-4124 were not statistically different from Lucrin®. […] The intensity of pain was assessed by the question: “On a […], with 0 being no pain and 10 being extreme pain, how intense was your pain on a bad day?” The mean scores for intensity of pain at baseline were 6.3 for the CDB-4124 groups and 6.1 for the Lucrin® group. […] At month three all four active treatment groups had statistically significant reduction in pain compared with baseline, with the following scores: 3.7 (p=0.03) for 12.5 mg CDB-4124, 3.2 (p=0.03) for 25 mg CDB-4124, 1.6 (p=0.015) for 50 mg CDB-4124 and 1.5 (p=0.016) for Lucrin®. These dose related reductions continued until month six when the values for pain intensity were 2.0 (p=0.008), 2.8 (p=0.023), 0.6 (p=0.004) and 0.7 (p=0.016), respectively. Two months after stopping treatment pain returned and was of similar intensity in all four treatment groups.

[2] = tested on: women with uterine fibroids; assay: Three month study in women with uterine fibroids; conditions: 12.5 mg or 25 mg daily for three months, begun at day 5 of cycle
Experimental: In a separate study, women with uterine fibroids were administered daily doses of 12.5 mg, 25 mg or 50 mg CDB-4124 for a three month period, beginning at day 5 of each woman's menstrual cycle.

[3] = tested on: pre-menopausal adult women diagnosed with endometriosis; assay: Six month study of Proellex (CDB-4124) in the treatment of endometriosis; conditions: for change in endometrial thickness from baseline (ultrasound): statistically insignificant

Structure (SMILES): COCC(=O)[C@@]1(OC(C)=O)CC[C@H]2[C@@H]3CCC4=CC(=O)CCC4=C3[C@@H](c3ccc(N(C)C)cc3)C[C@@]21C [CDB-4124, 21-methoxy-17α-acetoxy-11β-(4 N,N-dimethylaminophenyl)-19-norpregna-4,9-diene-3,20-dione]
- intensity of pain on a bad day (score) ([1]; month six, 12.5 mg CDB-4124, scale 0-10, p=0.008): 2.0
- intensity of pain on a bad day (score) ([1]; month six, 25 mg CDB-4124, scale 0-10, p=0.023): 2.8
- intensity of pain on a bad day (score) ([1]; month six, 50 mg CDB-4124, scale 0-10, p=0.004): 0.6
- intensity of pain on a bad day (score) ([1]; month three, 12.5 mg CDB-4124, scale 0-10, baseline 6.3, p=0.03): 3.7
- intensity of pain on a bad day (score) ([1]; month three, 25 mg CDB-4124, scale 0-10, baseline 6.3, p=0.03): 3.2
- intensity of pain on a bad day (score) ([1]; month three, 50 mg CDB-4124, scale 0-10, baseline 6.3, p=0.015): 1.6
- mean endometrial thickness [2]: less than 20 mm
- subjects with a significant bleeding episode [2]: None
- increase in endometrial thickness from baseline (ultrasound) ([3]; 12.5 mg dose, after six months, begun at day 5 of cycle, statistically significant (p 0.016)): 10.9 mm
- change in endometrial thickness from baseline (ultrasound) ([3]; 25 mg dose, after six months, begun at day 5 of cycle): 9.8 mm
- change in endometrial thickness from baseline (ultrasound) ([3]; 50 mg dose, after six months, begun at day 5 of cycle): 3.9 mm
- biomarkers of bone resorption ([3]; any of the dose arms of CDB-4124, three and six months of treatment): no significant changes
